Assay results from patent publication US8962855B2 (priority 2011, dated 2015).
pIC50: −log10 of the molar value.

Key:
[1] = system: MDA-MB-231; assay: cells; format: cell-based, human; settings: for pIC50: Homo sapiens, MDA-MB-231, 48 h, read-out: IC50, cellular anti-proliferative assay
[2] = system: HT29; assay: cells; format: cell-based, human; settings: for pIC50: Homo sapiens, HT-29, 48 h, read-out: IC50, cellular anti-proliferative assay
[3] = biological target: T1, CDK9/cyclin T1 (Homo sapiens, UniProt P50750); assay: biochemical
T1 construct: C-terminal 6His-tagged, full-length recombinant, human cdk9 (MW=44 kDa); made in house; host or cells: Sf21 insect cells (baculovirus)

[4] = system: MDA-MB-435; assay: cells; format: cell-based, human; settings: for pIC50: Homo sapiens, MDA-MB-435, 48 h, read-out: IC50, cellular anti-proliferative assay
[5] = system: NCI-H322M; assay: cells; format: cell-based, human; settings: for pIC50: Homo sapiens, NCI-H322M, 48 h, read-out: IC50, cellular anti-proliferative assay
[6] = system: SW-620; assay: cells; format: cell-based, human; settings: for pIC50: Homo sapiens, SW-620, 48 h, read-out: IC50, cellular anti-proliferative assay
[7] = biological target: T2, CDK3/cyclin E (Homo sapiens, UniProt Q00526); assay: biochemical
T2 construct: C-terminal 6His-tagged recombinant human full-length cdk3 (MW=36 kDa); made in house; host or cells: Sf21 insect cells (baculovirus)

[8] = system: M14; assay: cells; format: cell-based, human; settings: for pIC50: Homo sapiens, M14, 48 h, read-out: IC50, cellular anti-proliferative assay
[9] = system: KM12; assay: cells; format: cell-based, human; settings: for pIC50: Homo sapiens, KM12, 48 h, read-out: IC50, cellular anti-proliferative assay
[10] = system: RPMI-8226; assay: cells; format: cell-based, human; settings: for pIC50: Homo sapiens, RPMI-8226, 48 h, read-out: IC50, cellular anti-proliferative assay
[11] = biological target: T3, CDK2/cyclin E (Homo sapiens, UniProt P24941); assay: biochemical
T3 construct: C-terminal 6His-tagged, recombinant full-length CDK2 (MW=34 kDa); made in house; host or cells: Sf21 insect cells (baculovirus)

[12] = system: HS 578T; assay: cells; format: cell-based, human; settings: for pIC50: Homo sapiens, Hs-578T, 48 h, read-out: IC50, cellular anti-proliferative assay
[13] = system: IGROV1; assay: cells; format: cell-based, human; settings: for pIC50: Homo sapiens, IGROV-1, 48 h, read-out: IC50, cellular anti-proliferative assay

T1 sequence (P50750 whole entry): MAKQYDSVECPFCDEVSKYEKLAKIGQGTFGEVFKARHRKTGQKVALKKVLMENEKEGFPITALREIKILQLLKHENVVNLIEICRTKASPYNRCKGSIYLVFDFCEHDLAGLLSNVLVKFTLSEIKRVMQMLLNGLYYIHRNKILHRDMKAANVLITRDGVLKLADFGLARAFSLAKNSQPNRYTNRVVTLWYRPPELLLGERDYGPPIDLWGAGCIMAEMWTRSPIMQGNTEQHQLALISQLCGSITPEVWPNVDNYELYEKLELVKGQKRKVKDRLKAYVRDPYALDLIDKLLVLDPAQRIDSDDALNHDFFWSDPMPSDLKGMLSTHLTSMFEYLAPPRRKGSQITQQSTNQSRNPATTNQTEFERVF
T1 sequence (O60563 whole entry partner): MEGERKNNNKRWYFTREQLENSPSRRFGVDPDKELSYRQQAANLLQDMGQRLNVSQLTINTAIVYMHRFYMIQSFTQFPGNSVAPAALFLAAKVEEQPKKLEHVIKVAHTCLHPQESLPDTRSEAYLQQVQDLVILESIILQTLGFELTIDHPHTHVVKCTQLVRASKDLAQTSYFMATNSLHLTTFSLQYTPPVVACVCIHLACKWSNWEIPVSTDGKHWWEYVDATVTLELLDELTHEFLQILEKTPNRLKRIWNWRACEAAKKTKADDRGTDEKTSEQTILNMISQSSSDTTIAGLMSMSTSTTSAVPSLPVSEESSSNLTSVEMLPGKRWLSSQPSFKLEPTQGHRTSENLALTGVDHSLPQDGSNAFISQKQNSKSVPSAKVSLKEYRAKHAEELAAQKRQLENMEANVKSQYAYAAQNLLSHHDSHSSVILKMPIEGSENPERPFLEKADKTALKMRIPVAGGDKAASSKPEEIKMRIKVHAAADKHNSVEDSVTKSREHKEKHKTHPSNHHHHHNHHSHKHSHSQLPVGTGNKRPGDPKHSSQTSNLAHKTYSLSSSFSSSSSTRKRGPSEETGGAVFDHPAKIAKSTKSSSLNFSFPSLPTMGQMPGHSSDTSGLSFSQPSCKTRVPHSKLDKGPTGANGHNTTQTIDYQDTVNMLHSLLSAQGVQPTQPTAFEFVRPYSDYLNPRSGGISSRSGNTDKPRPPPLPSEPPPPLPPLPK
T2 sequence (Q00526 whole entry): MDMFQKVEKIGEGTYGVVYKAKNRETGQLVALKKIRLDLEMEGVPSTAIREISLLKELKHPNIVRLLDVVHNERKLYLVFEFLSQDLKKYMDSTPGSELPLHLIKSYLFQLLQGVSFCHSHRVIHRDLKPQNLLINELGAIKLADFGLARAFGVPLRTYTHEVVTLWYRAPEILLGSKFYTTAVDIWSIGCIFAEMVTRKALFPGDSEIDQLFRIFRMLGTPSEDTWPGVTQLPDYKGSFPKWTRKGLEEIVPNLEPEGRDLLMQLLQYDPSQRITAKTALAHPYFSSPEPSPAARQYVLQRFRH
T2 sequence (P24864 whole entry, further chain): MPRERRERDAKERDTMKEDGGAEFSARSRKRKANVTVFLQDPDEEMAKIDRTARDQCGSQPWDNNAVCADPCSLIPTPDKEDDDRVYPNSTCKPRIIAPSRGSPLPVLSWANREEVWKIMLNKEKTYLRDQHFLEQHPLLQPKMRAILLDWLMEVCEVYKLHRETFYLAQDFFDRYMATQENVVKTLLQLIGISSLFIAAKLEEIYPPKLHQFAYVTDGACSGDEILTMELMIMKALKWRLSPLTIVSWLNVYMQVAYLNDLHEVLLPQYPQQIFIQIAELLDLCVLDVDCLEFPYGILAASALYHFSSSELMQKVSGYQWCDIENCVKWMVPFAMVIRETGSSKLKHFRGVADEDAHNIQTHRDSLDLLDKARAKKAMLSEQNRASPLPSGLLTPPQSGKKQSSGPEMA

Compound | pIC50 [1] | pIC50 [2] | pIC50 [4] | pIC50 [5] | pIC50 [6] | pIC50 [8] | pIC50 [9] | pIC50 [10] | pIC50 [12] | pIC50 [13] | also measured
CC(C)(C)c1cnc(CSc2cnc(NC(=O)Cc3ccc(N(CCCl)CCCl)cc3)s2)o1 [CY-201, 2-(4-(bis(2-chloroethyl)amino)phenyl)-N-(5-((5-tert-butyloxazol-2-yl)methylthio)thiazol-2-yl)acetamide] | 6.66 | 6.97 | 7.10 | 6.83 | 7.01 | 7.24 | 7.04 | 6.57 | 6.83 | 6.97 | Ratio [1]: 727.8; Ratio [2]: 1227.4; pIC50 [3]: 7.04; Ratio [4]: 1577.6; fold more potent than the parental drug Chlorambucil [4]: more than 1,500 fold; Ratio [5]: 1380.4; Ratio [6]: 895.4; pIC50 [7]: 7.34; Ratio [8]: 1083.9; Ratio [9]: 1570.4; Ratio [10]: 280.5; pIC50 [11]: 8.57; Ratio [12]: 1273.5; Ratio [13]: 1088.9
O=C(O)CCCc1ccc(N(CCCl)CCCl)cc1 [Chlorambucil, reference compound] | 3.80 | 3.88 | 3.90 | 3.69 | 4.06 | 4.20 | 3.84 | 4.12 | 3.72 | 3.93 | CDK IC50, CDK9/cyclin T1 (Chlorambucil) [3]: No activity; CDK IC50, CDK3/cyclin E (Chlorambucil) [7]: No activity; CDK IC50, CDK2/cyclin E (Chlorambucil) [11]: No activity
